# Test results reported in US11339184B2, “Antibacterial compounds, compositions thereof, and methods using same” (priority 2019, dated 2022).
# Read-outs that look alike come from different tables or passages of the source.
# What was measured:
# M. abscessus = test: MIC against other mycobacteria: M. abscessus; format: cell-based; details: Table 3, M. abscessus
# M. tuberculosis H37rv = test: Antibiotic assay against M. tuberculosis (MIC / IC90); format: cell-based, Mycobacterium tuberculosis; details: for IC90: H37Rv
# M. avium = test: MIC against other mycobacteria: M. avium; format: cell-based; details: Table 3, M. avium
# M. marinum = test: MIC against other mycobacteria: M. marinum; format: cell-based; details: Table 3, M. marinum
# M. smegmatis = test: MIC against other mycobacteria: M. smegmatis; format: cell-based; details: Table 3, M. smegmatis
# [1] = tested on: Gram-positive bacteria, including Staphylococcus aureus, Staphylococcus epidermidis, Listeria monocytogenes and M. tuberculosis; format: cell-based
# [2] = Table 4, Formula III derivatives, M. tuberculosis H37rv
smiles,measurement,setting,value
"CO[C@H]1/C=C/O[C@@]2(C)Oc3c(C)c(O)c4c(O)c(c(/C=N/N5CCN(C)CC5)c(O)c4c3C2=O)NC(=O)/C(C)=C\C=C\[C@H](C)[C@H](O)[C@@H](C)[C@@H](O)[C@@H](C)[C@H](OC(C)=O)[C@@H]1C [Rif, rifampicin]",MIC,M. abscessus,> 25 µg/mL
same,MIC,M. tuberculosis H37rv,0.05 µg/mL
same,MIC,"M. tuberculosis H37rv; Table 3, M. tuberculosis H37rv, Trial 2",0.31 µg/mL
same,MIC,"M. tuberculosis H37rv; Table 3, M. tuberculosis H37rv, Trial 3",0.31 µg/mL
same,MIC,"M. tuberculosis H37rv; Table 3, M. tuberculosis H37rv, Trial 4",0.31 µg/mL
same,MIC,M. tuberculosis H37rv; [2],< 0.02 µg/mL
same,MIC,M. avium,< 0.195 µg/mL
same,MIC,M. marinum,> 25 µg/mL
same,MIC,M. smegmatis,> 25 µg/mL
CC(=O)OC1C(C)C(OC2CC3OCOC3C(C)O2)/C=C/OC2(C)CC(O)c3c(c(C)c(O)c4c3C(=O)C=C(NC(=O)/C(C)=C\C=C\C(C(C)OC(=O)C(C)(C)CC(=O)O)C(O)C(C)C(O)C1C)C4=O)O2 (centres unmarked) [kanglemycin V1],activity as antibiotics against Gram-positive bacteria,[1],active
same,IC90,M. tuberculosis H37rv,3120 nM
CC(=O)OC1C(C)C(OC2CC3OCOC3C(C)O2)/C=C/OC2(C)OC3=C(C)C(=O)c4c(O)c(cc5c4C3=C2OCO5)NC(=O)/C(C)=C\C=C\C(C(C)OC(=O)C(C)(C)CC(=O)O)C(O)C(C)C(O)C1C (centres unmarked) [kanglemycin V2],activity as antibiotics against Gram-positive bacteria,[1],active
same,IC90,M. tuberculosis H37rv,1560 nM
same,MIC,M. tuberculosis H37rv; [2],0.08 µg/mL
